This note sets out measurements from ChEMBL document CHEMBL6078644, “Azobenzene-Tagged Photopeptides Exhibiting Excellent Selectivity and Light-Induced Cytotoxicity in MCF-7 Cells over HeLa and A549” (J Med Chem, 2024).

The source made the active and inactive calls. The calls are words filed in the database; no cut-off is given here.

For data set [1], the system named is A549. Briefly: Cytotoxicity against human A549 cells assessed as reduction in cell viability incubated for 48 hrs with compound prepared under 365 nm UV light condition for 1 hrs by CellTIter blue reagent based fluorescence plate reader analysis. A general note: Alamar Blue is a resazurin reagent that responds to reducing activity.
For data set [2], the system named is HeLa. The data set can be described thus: Cytotoxicity against human HeLa cells assessed as reduction in cell viability incubated for 48 hrs with compound prepared under 365 nm UV light condition for 1 hrs by CellTIter blue reagent based fluorescence plate reader analysis.
The subject of data set [3] is MCF7. Briefly: Cytotoxicity against human MCF7 cells assessed as reduction in cell viability incubated for 48 hrs with compound prepared under 365 nm UV light condition for 1 hrs by CellTIter blue reagent based fluorescence plate reader analysis.
Data set [4] has as its target T1, Proteasome component C5 (Homo sapiens) (UniProt P20618).
T1 sequence (whole entry): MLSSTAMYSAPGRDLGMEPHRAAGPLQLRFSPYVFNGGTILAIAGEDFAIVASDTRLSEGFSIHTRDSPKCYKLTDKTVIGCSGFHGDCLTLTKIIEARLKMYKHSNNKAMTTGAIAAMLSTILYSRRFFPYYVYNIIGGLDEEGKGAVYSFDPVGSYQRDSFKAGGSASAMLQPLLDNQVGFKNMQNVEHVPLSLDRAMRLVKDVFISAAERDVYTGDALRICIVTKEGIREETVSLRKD
Briefly: Inhibition of human 20S proteosome beta1 subunit using […] as substrate preincubated for 30 mins with compound prepared under 365 nm UV light condition for 1 hrs followed by substrate addition and measured after 12 hrs by fluorescence plate reader analysis. The conditions noted are these: time 12.5 hrs.

For data set [5], the target named is Proteasome Macropain subunit (Homo sapiens) (UniProt P49721). Briefly: Inhibition of human 20S proteosome beta2 subunit using Bz-VGR-AMC as substrate preincubated for 30 mins with compound prepared under 365 nm UV light condition for 1 hrs followed by substrate addition and measured after 12 hrs by fluorescence plate reader analysis. The conditions noted are these: time 12.5 hrs.
Proteasome Macropain subunit (Homo sapiens), sequence (P49721 whole entry): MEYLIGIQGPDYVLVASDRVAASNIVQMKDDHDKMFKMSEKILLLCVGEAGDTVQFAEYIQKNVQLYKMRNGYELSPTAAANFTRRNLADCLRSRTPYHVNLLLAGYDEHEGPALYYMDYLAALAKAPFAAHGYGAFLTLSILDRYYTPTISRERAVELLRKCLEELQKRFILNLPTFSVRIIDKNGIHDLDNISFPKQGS

A short description of data set [6]: Half-life of compound under dark condition measured for 150 hrs at 6 hrs interval by UV-spectroscopy. It counts as physicochemical.
Data set [7] can be described thus: Retention time of compound by HPLC analysis. The data set is classed as physicochemical.
In data set [8] the test system is A549. Briefly: Cytotoxicity against human A549 cells assessed as reduction in cell viability incubated for 48 hrs with compound prepared under dark condition by CellTIter blue reagent based fluorescence plate reader analysis. It counts as functional. The conditions noted are these: A549, 48 h.
For data set [9], the target named is T1, Proteasome component C5 (Homo sapiens). Briefly: Inhibition of human 20S proteosome beta1 subunit using […] as substrate preincubated for 30 mins with compound prepared under dark condition followed by substrate addition and measured after 12 hrs by fluorescence plate reader analysis. Conditions: time 12.5 hrs.
For data set [10], the system named is HeLa. The data set can be described thus: Cytotoxicity against human HeLa cells assessed as reduction in cell viability incubated for 48 hrs with compound prepared under dark condition by CellTIter blue reagent based fluorescence plate reader analysis.
The target of data set [11] is Proteasome Macropain subunit (Homo sapiens) (UniProt P49721). Briefly: Inhibition of human 20S proteosome beta2 subunit using Bz-VGR-AMC as substrate preincubated for 30 mins with compound prepared under dark condition followed by substrate addition and measured after 12 hrs by fluorescence plate reader analysis. Conditions: time 12.5 hrs.
Data set [12] deals with MCF7. Briefly: Cytotoxicity against human MCF7 cells assessed as reduction in cell viability incubated for 48 hrs with compound prepared under dark condition by CellTIter blue reagent based fluorescence plate reader analysis. It counts as functional. The conditions noted are these: MCF7, 48 h.
Data set [13] in a line: Potency index, ratio of E-enrichment isomer IC50 to test compound (Z-enrichment isomer) IC50 for cytotoxicity against human A549 cells assessed as reduction in c ell viability incubated for 48 hrs by CellTiter blue reagent based fluorescence plate reader analysis. It counts as functional.
The nature of data set [14]: Potency index, ratio of E-enrichment isomer IC50 to test compound (Z-enrichment isomer) IC50 for cytotoxicity against human MCF7 cells assessed as reduction in c ell viability incubated for 48 hrs by CellTiter blue reagent based fluorescence plate reader analysis. It counts as functional.
A short description of data set [15]: Potency index, ratio of E-enrichment isomer IC50 to test compound (Z-enrichment isomer) IC50 for cytotoxicity against human HeLa cells assessed as reduction in c ell viability incubated for 48 hrs by CellTiter blue reagent based fluorescence plate reader analysis. It counts as functional.

The IC50 is the point on the concentration scale where inhibition reaches its midpoint. As a reminder, the half-life is the time in which the quantity being followed falls by half.

`Cc1cc(C)cc(N=Nc2cccc(C(=O)N[C@@H](Cc3ccccc3)C(=O)N[C@@H](CC(C)C)C(=O)N[C@H](C=CS(C)(=O)=O)CC(C)C)c2)c1`: the figures for the IC50 in the data set on A549 [1], in the data set on HeLa [2] and in the data set on MCF7 [3] were 1.9 µM, 0.32 µM and 7.51 µM, respectively. The inhibition result in data set [4] and in data set [5] was “inactive” each time. Besides, the half-life in [6] is > 100 h.

As for `Cc1cc(C)cc(/N=N\c2cccc(C(=O)N[C@@H](Cc3c[nH]c4ccccc34)C(=O)N[C@@H](CC(C)C)C(=O)N[C@H](/C=C/S(C)(=O)=O)CC(C)C)c2)c1`, the IC50 was 0.42 µM in the data set with A549 [1], 0.25 µM with HeLa [2] and 5.44 µM in the data set with MCF7 [3]. Further, the inhibition result in [4] and in data set [5] was “inactive” throughout. Also, in data set [6], the half-life is > 100 h.

For `Cc1cc(C)cc(/N=N\c2cccc(C(=O)N[C@@H](CC(C)C)C(=O)N[C@@H](CC(C)C)C(=O)N[C@H](/C=C/S(C)(=O)=O)CC(C)C)c2)c1`, the IC50 in the data set with A549 [1] amounted to 0.73 µM; with HeLa [2] it was 0.28 µM; in the data set on MCF7 [3], 4.39 µM. The inhibition entry in data set [4] and in [5] was “inactive” each time. Also, the Retention_time in data set [7] came out at 13.5 min. Also, in data set [6], the half-life is > 100 h.

Consider `Cc1cc(C)cc(/N=N/c2cccc(C(=O)N[C@@H](Cc3ccccc3)C(=O)N[C@@H](CC(C)C)C(=O)N[C@H](/C=C/S(C)(=O)=O)CC(C)C)c2)c1`, for which the half-maximal inhibitory concentration (IC50) with A549 [8] stood at 2.59 µM; in the data set on HeLa [10], 1.23 µM; in the data set with MCF7 [12] it was 35.8 µM. Also, the inhibition entry in data set [9] and in [11] was “inactive” throughout.

With `CC(C)C[C@H](NC(=O)[C@H](Cc1ccc(/N=N\c2ccccc2)cc1)NC(=O)OC(C)(C)C)B1OC2C[C@@H]3C[C@@H](C3(C)C)[C@@]2(C)O1` (some centres not stated), the IC50 turned out to be 66.4 µM in the data set on A549 [1], 38.1 µM with HeLa [2] and 27.9 µM in the data set on MCF7 [3]. In addition, the “Ratio IC50” value amounted to 0.79 in data set [13], 1.4 in data set [14] and 1 in data set [15].

On to `Cc1cc(C)cc(/N=N/c2cccc(C(=O)N[C@@H](CC(C)C)C(=O)N[C@@H](CC(C)C)C(=O)N[C@H](/C=C/S(C)(=O)=O)CC(C)C)c2)c1`, for which the IC50 with A549 [8] was 2.56 µM; with HeLa [10], 0.42 µM; with MCF7 [12], 8.36 µM. This compound displayed a Retention_time in data set [7] of 11.1 min. Also, the inhibition entry in data set [9] and in data set [11] was “inactive” each time.

Take `Cc1cc(C)cc(/N=N/c2cccc(C(=O)N[C@@H](Cc3c[nH]c4ccccc34)C(=O)N[C@@H](CC(C)C)C(=O)N[C@H](/C=C/S(C)(=O)=O)CC(C)C)c2)c1`: the IC50 was 1.98 µM with A549 [8], 0.285 µM with HeLa [10] and 10.6 µM with MCF7 [12]. The inhibition result in [9] and in data set [11] was “inactive” each time.

Regarding `Cc1cc(C)cc(/N=N\c2cccc(C(=O)N[C@H](C(=O)N[C@@H](Cc3ccccc3)C(=O)N[C@H](/C=C/S(C)(=O)=O)CC(C)C)C(C)C)c2)c1`, the IC50 with A549 [1] came out at 6.95 µM; with HeLa [2], 2.9 µM; in the data set on MCF7 [3], 2.25 µM. The inhibition entry in [4] and in data set [5] was “inactive” throughout. Further, the half-life in [6] is > 100 h.

Turning to `Cc1cc(C)cc(/N=N/c2cccc(C(=O)N[C@H](C(=O)N[C@@H](Cc3ccccc3)C(=O)N[C@H](/C=C/S(C)(=O)=O)CC(C)C)C(C)C)c2)c1`, the IC50 was 45.9 µM in the data set on A549 [8], 9.6 µM in the data set on HeLa [10] and 48.5 µM in the data set on MCF7 [12]. Besides, the inhibition entry in data set [9] and in [11] was “inactive” each time.

For `CC(C)CC(NC(=O)[C@H](Cc1ccccc1)NC(=O)c1ccc(/N=N\c2ccccc2)cc1)B(O)O` (some centres not stated), the IC50 was determined as 17.3 µM in the data set on A549 [1] and 6.7 µM with MCF7 [3].

Take `CC(C)C[C@H](NC(=O)[C@H](Cc1ccc(/N=N/c2ccccc2)cc1)NC(=O)OC(C)(C)C)B1OC2C[C@@H]3C[C@@H](C3(C)C)[C@@]2(C)O1` (some centres not stated): the concentration for half-maximal inhibition (IC50) was found to be 52.5 µM in the data set on A549 [8], 38.2 µM with HeLa [10] and 40.1 µM in the data set with MCF7 [12].
